Source: patent EP1149106B1, “4,5-AZOLO-OXINDOLES” (F. HOFFMANN-LA ROCHE AG, priority 1998, dated 2000)

What was measured:
Cyclin E/CDK2 = target: T1, Cyclin E/CDK2 (Homo sapiens, UniProt P24941); assay: CDK2 FlashPlate Assay (Rb phosphorylation, 33P-ATP); assay type: biochemical; conditions: recombinant human Cyclin E/CDK2, Rb substrate, 25 minutes at room temperature
T1 construct: made in house; host or cells: insect cells
Experimental: To determine inhibition of CDK2 activity, purified recombinant retinoblastoma (Rb) protein was coated on 96 well FlashPlates (New England Nuclear, Boston, MA). Rb is a natural substrate for phosphorylation by CDK2 (Herwig and Strauss Eurr. J. Biochem., Vol. 246 (1997) pp. 581-601 and references therein). Recombinant active human Cyclin E/CDK2 complexes were partially purified from extracts of insect cells. The active Cyclin E/CDK2 was added to the Rb-coated FlashPlates along with ^33P-ATP and dilutions of test compounds. Plates were incubated for 25 minutes at room temperature with shaking, then washed and counted in the Topcount scintillation counter (Packard Instrument Co., Downers Grove, IL). Dilutions of test compounds were tested in duplicate in each assay. The percent inhibition of Rb phosphorylation, which is a measure of the inhibition of CDK2 activity, was determined according to the following formula: [formula] where "test compound" refers to the average counts per minute of the test duplicates, "nonspecific" refers to the average counts per minute when no Cyclin E/CDK2 was added, and "total" refers to the average counts per minute when no compound was added.

[1] = system: estrogen receptor negative epithelial breast carcinoma line (MDA-MB-435); assay: Cell-based antiproliferative assay (MTT), MDA-MB-435; conditions: Homo sapiens, MDA-MB-435, 120 h, 2000 cells per well, 5 days post addition of test compound, read-out: MDA-MB435 IC50
Experimental: The estrogen receptor negative epithelial breast carcinoma line (MDA-MB-435) was purchased from American Type Cell Culture Collection (ATCC; Rockville, MD) and was grown in the medium recommended by ATCC. For analysis of the effect of the test compounds on growth of these cells, the cells were plated at 2000 cells per well in a 96-well tissue culture plate, and were incubated overnight at 37°C with 5% CO2. The next day, the test compounds were dissolved in 100% dimethyl sulfoxide (DMSO) to yield a 10 mM stock solution. Each compound was diluted with sterile medium to 1 mM in a sufficient quantity to yield a final concentration of 120 µM. The compounds were then serially diluted in medium with 1.2% DMSO. […] The plates were returned to the incubator, and 5 days post addition of test compound, were analyzed as described below.
3-(4,5-Dimethylthiazole-2-yl)-2,5-diphenyl-2H-tetrazolium bromide (thiazolyl blue; MTT) was added to each well to yield a final concentration of 1 mg/ml. […] Absorbencies were read in a microtiter plate reader (Molecular Dynamics) at a wavelength of 570 nm with a 650 nm reference. Percent inhibition was calculated by subtracting the absorbance of the blank (no cell) wells from all wells, then subtracting the division of the average absorbance of each test duplicate by the average of the controls from 1.00. […]

[2] = system: colon carcinoma line SW480; assay: Cell-based antiproliferative assay (MTT), SW480; conditions: Homo sapiens, SW480, 96 h, 1000 cells per well, 4 days post addition of test compound

IC50 (Cyclin E/CDK2): < 3.5 µM | IC50 [1]: < 3.5 µM | IC50 [2]: < 1 µM
Compound: COc1cc[nH]c1/C=C1\C(=O)Nc2ccc3[nH]c(C)nc3c21 [P, (Z)-8-[(3-Methoxy-1H-pyrrol-2-yl)methylene]-2-methyl-3,6,7,8-tetrahydro-pyrrolo-[3,2-e]benzimidazol-7-one]
